According to BindingDB's records for doi:10.1021/jm0702377 (University of Liverpool, 2007):

Molecular target: T1, Alpha-methylacyl-CoA racemase (Rattus norvegicus, UniProt P70473)
T1 sequence (P70473 whole entry): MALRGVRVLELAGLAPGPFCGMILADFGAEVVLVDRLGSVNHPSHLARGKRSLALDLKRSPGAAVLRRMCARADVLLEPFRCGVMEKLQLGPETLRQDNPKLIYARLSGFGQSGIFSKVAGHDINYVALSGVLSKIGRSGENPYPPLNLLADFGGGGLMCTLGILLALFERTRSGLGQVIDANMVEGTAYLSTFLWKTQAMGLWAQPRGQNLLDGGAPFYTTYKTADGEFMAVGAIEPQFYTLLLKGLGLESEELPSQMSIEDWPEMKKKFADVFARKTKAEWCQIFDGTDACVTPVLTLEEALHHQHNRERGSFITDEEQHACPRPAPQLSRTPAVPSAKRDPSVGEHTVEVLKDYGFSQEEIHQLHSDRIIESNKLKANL
Assay: AMACR Inhibition Assay
Conditions: pH 7; 37 °C
Description: AMACR activity was determined by monitoring the interconversion of the (25R/S)-isomer of THC-CoA. Reaction product was analyzed by resolution of (25S)-or (25R)-THC-CoA using HPLC, which was carried out with a reversed-phase C18-column and a linear gradient of methanol in potassium phosphate buffer (50 mM, pH 5.3). Kinetic parameters were determined using direct linear plot analysis.

| Ki [µM] | Structure (SMILES) |
| --- | --- |
| 20 | CCCCCCCCCCCCCC(C(=O)SCCNC(=O)CCNC(=O)C(O)C(C)(C)COP(=O)(O)OP(=O)(O)OC[C@H]1O[C@@H](n2cnc3c(N)ncnc32)[C@H](O)[C@@H]1OP(=O)(O)O)C(F)F (some centres not stated) [2-Difluoromethylpentadecanoyl-CoA, 4] |
| 0.9 | CCCCCCCCCCCCC(C(=O)SCCNC(=O)CCNC(=O)C(O)C(C)(C)COP(=O)(O)OP(=O)(O)OC[C@H]1O[C@@H](n2cnc3c(N)ncnc32)[C@H](O)[C@@H]1OP(=O)(O)O)C(F)(F)F (some centres not stated) [2-Trifluoromethyltetradecanoyl-CoA, 3] |
| 137 | CCCCCCCCCCCCC(C)C(=O)SCCNC(=O)CCNC(=O)C(O)C(C)(C)COP(=O)(O)OP(=O)(O)OC[C@H]1O[C@@H](n2cnc3c(N)ncnc32)[C@H](O)[C@@H]1OP(=O)(O)O (some centres not stated) [2-methylmyristoyl CoA, 22] |
| 2.3 | CCCCCCCCCCCCC[C@@H](F)[C@H](C)C(=O)SCCNC(=O)CCNC(=O)C(O)C(C)(C)COP(=O)(O)OP(=O)(O)OC[C@H]1O[C@@H](n2cnc3c(N)ncnc32)[C@H](O)[C@@H]1OP(=O)(O)O (stereo partly drawn) [(2S,3R)-3-fluoro-2-methylhexadecanoyl-CoA, 6] |
| 1.3 | CCCCCCCCCCCCC[C@H](F)[C@@H](C)C(=O)SCCNC(=O)CCNC(=O)C(O)C(C)(C)COP(=O)(O)OP(=O)(O)OC[C@H]1O[C@@H](n2cnc3c(N)ncnc32)[C@H](O)[C@@H]1OP(=O)(O)O (stereo partly drawn) [((2R,3S)-3-Fluoro-2-methylhexadecanoyl-CoA, 5] |
| 3.8 | C[C@@H](CC[C@H](F)[C@@H](C)C(=O)SCCNC(=O)CCNC(=O)C(O)C(C)(C)COP(=O)(O)OP(=O)(O)OC[C@H]1O[C@@H](n2cnc3c(N)ncnc32)[C@H](O)[C@@H]1OP(=O)(O)O)[C@H]1CC[C@H]2[C@@H]3[C@H](O)C[C@@H]4C[C@H](O)CC[C@]4(C)[C@H]3C[C@H](O)[C@]12C (some centres not stated) [THC-CoA Analogue, 7] |
| 45 | CCCCCCC(C)C(=O)SCCNC(=O)CCNC(=O)C(O)C(C)(C)COP(=O)(O)OP(=O)(O)OC[C@H]1O[C@@H](n2cnc3c(N)ncnc32)[C@H](O)[C@@H]1OP(=O)(O)O (stereo partly drawn) [{[(2R,3S,4R,5R)-5-(6-amino-9H-purin-9-yl)-4-hydroxy-2-({[hydroxy({[hydroxy(3-hydroxy-2,2-dimethyl-3-{[2-({2-[(2-methyloctanoyl)sulfanyl]ethyl}carbamoyl)ethyl]carbamoyl}propoxy)phosphoryl]oxy})phosphoryl]oxy}methyl)oxolan-3-yl]oxy}phosphonic acid] |
